Assay [1] deals with cellular methylation (symmetric di-methyl arginine) in Maver-1 cells. In words: In Cell Western (ICW) methylation assay, SYM11 antibody. The assay is classed as cell-based. The settings on record: Homo sapiens, Maver1, 96 h, 4 days of treatment, n=1. The protocol: [Worded in the source for another cell line; this cell line is reported under the same test.] Percent inhibition was determined and IC50 curves were generated using triplicate wells per concentration of compound. IC50 values were calculated using GraphPad Prism using a 4-parametric fit of the normalized dose response curves with the top fixed to 100%. Z-138 cells were seeded in assay medium at a concentration of 50,000 cells per mL to a 384-well cell culture plate with 50 μL per well. Compound (100 nL) from 384 well source plates was added directly to 384 well cell plate. Plates were incubated at 37° C., 5% CO2 for 96 hours. After four days of incubation, 40 μL of cells from incubated plates were added to poly-d-lysine coated 384 well culture plates (BD Biosciences 356697). Plates were incubated at room temperature for 30 minutes then incubated at 37° C., 5% CO2 for 5 hours. After the incubation, 40 μL per well of 8% paraformaldehyde in PBS (16% paraformaldahyde was diluted to 8% in PBS) was added to each plate and incubated for 30 minutes. Plates were transferred to a Biotek 405 plate washer and washed 5 times with 100 μL per well of wash buffer (1×PBS with 0.1% Triton X-100 (v/v)). […] The average of the ratio values for each control type was calculated and used to determine the percent inhibition for each test well in the plate. […] Percent inhibition was determined and IC50 curves were generated using triplicate wells per concentration of compound. […]

Assay [2] deals with p53 expression in Z138 cells. In words: p53 and p21 expression analysis (Western). The settings on record: Z138 mantle cell lymphoma cells. The assay is classed as cell-based, Human. On the procedure: Z138 cells were seeded at approximately 3×10^6 cells/dish in 10 cm tissue culture dishes in a volume of 10 mL IMDM+10% horse serum media. Cells were treated with 1 μM of Formula C for 1, 2, 3, 4, or 5 days. Cell pellets were collected by centrifuging at 500×g for 5 minutes, washing once with PBS, and freezing at −80° C. until ready to be processed.
Protein lysates were prepared by adding RIPA buffer (Sigma R0278) containing protease inhibitor (about 5× the volume of the cell pellet, or roughly 250 μL) to each cell pellet and pipetting to resuspend. Samples were sonicated with 10×1 second pulses then centrifuged at maximum speed (13,300 RPM) for 6 minutes. 200 μL of supernatant was transferred to a fresh Eppendorf tube, and pellets were discarded. Protein concentration was determined using a Pierce BCA Protein Assay kit.
Protein gel samples were prepared by combining 20 μg of lysate with appropriate volumes of Life Technologies NuPage Sample Reducing Agent, LDS Sample Buffer, and RIPA buffer. Gel samples were heated for 5-10 minutes at 100° C. in a heat block. A 15-well Invitrogen 4-12% Bis-Tris NuPAGE-SDS gel was loaded with a volume of 19 μL per well, and run in MES SDS buffer at 150V for about 1 hour or until maximal separation of bands was achieved.
Gels were transferred onto nitrocellulose membranes using an Invitrogen iBlot system. […]

The values that follow come from US10653693B2, “PRMT5 inhibitors and uses thereof” (Epizyme, Inc., priority 2014, dated 2020).

Compound `CC(=O)N1CCC(Nc2cc(C(=O)NC[C@H](O)CN3CCc4ccccc4C3)ccn2)CC1` [Formula B] had an IC50 in assay [1] of 1.9 nM.
As to `O=C(NC[C@H](O)CN1CCc2ccccc2C1)c1ccnc(NC2CCC2)c1` [Formula C], the p53 expression entry in assay [2] is given as “increases”.
